Assay results reported in patent US20060094693A1, “Methods and compositions for treating glucose-associated conditions, metabolic syndrome, dyslipidemias and other conditions” (Point Therapeutics, Inc., priority 2004, published 2006).

Assays:
serum KC/CXCL1 = test: Serum KC/CXCL1 levels in vivo (ELISA); design: species or system BALB/c mice; details: 0.2-200 μg/mouse oral, 2 hours
Method: (§1) Assay ofserum DPP-IV inhibition and KC/CXCL1 levels in vivo. […] Each mouse received a single administration of each amino boronic dipeptide or saline, and blood samples were withdrawn from mice 2 hours later.
Serum concentration of mouse KC/CXCL1 was determined by Quantikine enzyme-linked immunosorbent assay (ELISA; R&D Systems, Minneapolis, Minn.) according to the manufacturer's instructions. ELISA was performed in duplicate for each sample.

serum DPP-IV [1] = target: T1, serum DPP-IV (Mus musculus, UniProt P28843); test: Serum DPP-IV inhibition in vivo after oral gavage (Example 2); design: species or system BALB/c mice
T1 construct: from tissue; host or cells: serum of BALB/c mice dosed orally
T1 sequence (P28843 37-760 limits assumed): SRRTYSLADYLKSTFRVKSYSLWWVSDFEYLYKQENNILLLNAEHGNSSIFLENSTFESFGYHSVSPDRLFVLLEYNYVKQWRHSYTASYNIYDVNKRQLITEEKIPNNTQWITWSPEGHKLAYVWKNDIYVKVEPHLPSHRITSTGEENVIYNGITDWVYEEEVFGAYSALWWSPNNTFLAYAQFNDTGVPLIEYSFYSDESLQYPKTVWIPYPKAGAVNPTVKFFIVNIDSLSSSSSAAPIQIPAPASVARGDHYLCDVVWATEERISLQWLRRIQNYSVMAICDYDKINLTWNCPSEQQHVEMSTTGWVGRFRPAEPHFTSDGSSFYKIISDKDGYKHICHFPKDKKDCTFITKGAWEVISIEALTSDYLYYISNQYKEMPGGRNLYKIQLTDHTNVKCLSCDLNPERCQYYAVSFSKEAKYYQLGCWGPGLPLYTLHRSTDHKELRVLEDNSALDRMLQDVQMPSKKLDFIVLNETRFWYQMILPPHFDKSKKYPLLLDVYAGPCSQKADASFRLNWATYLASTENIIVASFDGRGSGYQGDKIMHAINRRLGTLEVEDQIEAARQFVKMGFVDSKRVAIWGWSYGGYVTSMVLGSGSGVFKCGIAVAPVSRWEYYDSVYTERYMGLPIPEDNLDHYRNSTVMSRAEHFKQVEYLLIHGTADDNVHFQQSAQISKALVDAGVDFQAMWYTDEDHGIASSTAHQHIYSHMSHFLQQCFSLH
Method: Assay of serum DPP-IV inhibition in vivo. […] DPP-IV activity was determined by reaction of 10 μl serum with 90 μl of 0.11 mM Ala-Pro-AFC (Enzyme System Products, Dublin, Calif.) in 50 mM HEPES/Na buffer pH 7.6, 140 mM NaCl.

ob/ob mice = test: Mouse oral glucose tolerance test (OGTT); assay type: in vivo
Method: Protocol for mouse oral glucose tolerance test (OGTT). The day of oral-glucose challenge was defined as day 0. […] Agents were administered by oral gavage. Mice were restricted to a diet of 50% of their individual calculated food intake from day −1 onwards. On day 0, blood glucose was measured at […]. immediately followed by drug administration. At time point 0, glucose was administered by oral gavage (1g/kg), and blood glucose was measured at time points 0, 30, 60, 120 and 240 minutes. Means±SE were calculated from the data of individual mice in drug-treatment groups 1 and 2.

DIO rats = test: Single oral dose before oral glucose challenge, DIO rats (Example 10); assay type: in vivo; details: single oral dose 15 minutes prior to oral glucose
Excerpt: The data shown in FIG. 16A are mean values from 10 rats per treatment.
The data shown in FIG. 16B are mean values from 10 rats per treatment.

Zucker fa/fa rats [2] = test: Single oral dose before oral glucose challenge, Zucker Fa/Fa rats (Example 10); assay type: in vivo; details: single oral dose 15 minutes prior to oral glucose
Excerpt: The data shown in FIG. 15 are mean values from 6 rats per treatment.

[3] = target: T2, soluble recombinant human DPP-IV (Homo sapiens, UniProt P27487); test: In vitro assay of enzymatic activity of recombinant soluble DPP-IV and inhibition by amino boronic dipeptides; assay type: biochemical; details: assayed 3 minutes, 78 minutes and 16 hours after addition of Ala-Pro-AFC
T2 construct: immunoglobulin kappa light chain secretion signal (pSecTag2-B) (N, cleaved yes); made in house; host or cells: 293T cells, transient transfection; unpurified culture supernatant used
T2 sequence (P27487 39-766 limits assumed): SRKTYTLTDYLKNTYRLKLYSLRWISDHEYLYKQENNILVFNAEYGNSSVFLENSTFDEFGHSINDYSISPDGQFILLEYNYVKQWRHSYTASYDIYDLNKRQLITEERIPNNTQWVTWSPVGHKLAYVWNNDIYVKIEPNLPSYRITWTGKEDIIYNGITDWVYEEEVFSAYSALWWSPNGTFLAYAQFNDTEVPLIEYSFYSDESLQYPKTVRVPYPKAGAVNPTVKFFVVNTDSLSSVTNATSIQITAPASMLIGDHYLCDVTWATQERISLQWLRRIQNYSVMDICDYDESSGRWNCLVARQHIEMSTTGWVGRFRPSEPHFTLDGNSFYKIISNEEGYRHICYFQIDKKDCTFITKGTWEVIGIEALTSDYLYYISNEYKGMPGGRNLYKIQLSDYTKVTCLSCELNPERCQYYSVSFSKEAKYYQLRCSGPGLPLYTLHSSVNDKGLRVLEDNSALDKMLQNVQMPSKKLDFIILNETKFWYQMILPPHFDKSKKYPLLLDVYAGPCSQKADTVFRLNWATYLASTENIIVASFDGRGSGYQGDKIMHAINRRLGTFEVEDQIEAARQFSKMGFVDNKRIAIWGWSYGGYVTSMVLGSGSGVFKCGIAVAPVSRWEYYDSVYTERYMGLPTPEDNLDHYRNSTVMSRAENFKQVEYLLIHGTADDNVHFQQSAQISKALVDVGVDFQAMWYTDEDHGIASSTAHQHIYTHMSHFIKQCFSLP
Excerpt: Production of soluble recombinant human DPP-IV. Based on information on the N-terminus of serum DPP-IV (15), a truncated DPP-IV was engineered in which a signal/leader sequence was joined to the residue in DPP-IV corresponding to the N-terminus of serum DPP-IV to allow secretion. The cDNA encoding the desired truncated human DPP-IV dimer enzyme was engineered into the mammalian secretion vector pSecTag2 (Cat# V900-20, InVitrogen Corporation). The vector, available in A, B or C versions, representing three possible phases for gene fusion, contained an immunoglobulin-kappa light chain secretion signal followed by a selection of restriction sites for gene insertion. The fusion required engineering a restriction site upstream of the chosen fusion amino acid in the 5′ end of the DPP-IV dimer enzyme nucleic acid in phase with the chosen restriction site (Sfi I) in the vector secretion sequence. The chosen fusion amino acid in the 5′ end of the DPP-IV (Ser39) was 3′ of the trans-membrane anchoring domain. The pSecTag2 version B and its Sfi I restriction site was chosen for the fusion because it minimizes the additional N-terminal, vector-encoded residues in the mature secreted protein.
Construction of the fusion was as follows. First, total RNA was isolated from the Caco-2 colorectal carcinoma cell line (ATCC HTB-37) by standard Trizol/phenol/chloroform methodology. The purified RNA (approx. 2.5 μg in a 20 μl reaction) was used to make cDNA using oligo-dT primer and a commercial reverse transcription (RT) kit (InVitrogen). […] The following thermal cycler program was used: 94° C. for 45 sec. initial denaturation, then 30 cycles of 94° C., 10 sec.; 48° C., 6 sec.; 60° C., 4 min; followed by 5-min. extension at 72° C. after cycling.
DNA from the plasmid encoding DPP-IV dimer enzyme was prepared on an approximately 400 μg scale from overnight 30 ml cultures in Luria broth with 100 μg ampicillin per ml using a commercial kit (Qiagen Maxiprep Kit).
In vitro assay of enzmatic activity ofrecombinant soluble DPP-IV and inhibition by amino boronic dipeptides. The assay reaction mixture consisted of 135 μl 50 mM HEPES/Na buffer pH 7.6, 140 mM NaCl, 10-15 gl enzyme-containing culture supernatant, dipeptide substrate Ala-Pro-(7-amino-4-trifluoromethyl coumarin) (Ala-Pro-AFC; Enzyme System Products, Dublin, Calif.) at typically 0.1-1 mM added from a 100 or 400 mM stock in dimethyl formamide. The reaction mixture was incubated at room temperature, and production of the fluorescent AFC product was measured in a fluorometer (excitation, 400 nm; emission 505 nm), either by continuous monitoring or after termination with a one to one-tenth volume of 1 -M sodium acetate, pH 4.5. Fluorometric reading were made with a Molecular Dynamics Spectra Max GeminiXS capable of reading 96-well microtiter plates. The inhibitory activity of amino boronic dipeptides was investigated by preincubation of assay reaction mixtures with varying concentrations of each compound for 10 minutes before the addition of the substrate Ala-Pro-AFC.

Lewis rats = test: in vivo; details: Lewis, rat, in vivo, 5 days
Method: (§2) Serum DPP-IV inhibition and observation of acute toxicity of amino boronic dipeptides in Lewis rats. […] After observations were completed or at the onset of a moribund state, humane euthanasia was performed by asphyxiation in 100% CO2.

in vivo = details: Lewis, rat, in vivo
Method: as §2

Zucker fa/fa rats [4] = test: Rat oral glucose tolerance test (glucose, insulin, GLP-1); assay type: in vivo; details: 10 μmol/kg oral
Excerpt: Protocol for rat oral glucose tolerance test (OG7T). […] On days −11 to −8, rats were fitted with intra-arterial catheters under light isoflurane anesthesia. […] From 12:00 a.m.

[5] = system: Zucker Diabetic Fatty (ZDF) rats; test: 6 week glycemic control study in Zucker Diabetic Fatty rats; assay type: in vivo
Method: The design of the 6 week long study is depicted in FIG. 8. 60 male Zucker Diabetic Fatty (ZDF) rats (5 weeks of age) were obtained from Charles River Labs. The animals are housed singly and allowed to acclimatize for 1 week before the initiation of the study. 24-hour food intake and body weight was measured gravimetrically twice weekly from the start of housing. HbA1C levels were measured at Day 0, 7, 14, 28 and 46. OGTT was administered on Day 2-3, 15 minutes after the administration of the drugs. OGTT was administered again at the end of the study but in this case, drugs were given 15 hours prior to the OGTT. The 24-hour glucose profile was monitored at day 14-15 of the study.
The insulin sensitivity index was calculated at the termination of the study according to the method described by Matsuda and DeFronzo (Diabetes Care. 1999 Sep.;22(9):1462-70).

serum DPP-IV [6] = target: T1, serum DPP-IV; test: Serum DPP-IV activity 2 hours after oral amino boronic dipeptides (Example 4); assay type: in vivo, BALB/c mice; details: 20 and 200 μg doses
Method: as §1
Serum DPP-IV activity was determined by reaction of a 10 μl volume of serum with 0.1 mM Ala-Pro-AFC (Enzyme System Products, Dublin, Calif.) in a 100 μl volume of 50 mM HEPES/Na buffer pH 7.6, 140 mM NaCl. […] Serum DPP-IV activity was expressed as fluorescent units (FU).

## N[C@@H](CCC(=O)O)C(=O)N1CCC[C@H]1B(O)O [Glu-boroPro, glutamic acid boroproline]
Serum KC/CXCL1
  serum levels of KC/CXCL1: failed to affect serum levels of KC/CXCL1 at any of the doses tested
Serum DPP-IV [1]; BALB/c mice, single oral dose, 2 hours
  ID50 (dose reducing serum DPP-IV activity by 50% of baseline): 1 μg per mouse
Serum DPP-IV [1]; single oral 5 μg or 20 μg per mouse, until at least 6 hours
  serum DPP-IV inhibition persisting: greater than 80%
ob/ob mice; 1.0 μmol/kg oral, 15 minutes prior to glucose
  glucose excursion post oral glucose challenge: reduced
ob/ob mice; single 1.0 μmol/kg dose
  anti-glycemic effect, area under the blood glucose curve: significant
DIO rats
  insulin response: improved insulin response
  insulin secretion calculated from AUC: increased insulin secretion
Zucker fa/fa rats [2]
  insulin response: improved insulin response
[3]
  persistence of DPP-IV inhibition after preincubation: sustained DPP-IV inhibition
Lewis rats
  MTD (maximum tolerated dose): 15,000 μg/kg
In vivo
  MTD at 5 days: 15 mg/kg
Zucker fa/fa rats [4]; 15 min before glucose 2 g/kg
  blood glucose excursion: reduced
Zucker fa/fa rats [4]; after oral glucose challenge
  blood plasma level of GLP-1: increased
  blood plasma level of insulin: increased
[5]; 10 μmole/kg, day 14-15
  AUC of 24 hour glucose profile: achieve significance
[5]; 3 micromole/kg, 46 days of treatment
  triglyceride (TG) lowering: significant improvement
[5]; 10 micromole/kg
  food intake over time: apparent slight decrease in food intake
[5]; 10 micromole/kg, 46 days of treatment
  triglyceride (TG) lowering: significant improvement
[5]; 10 micromole/kg, Day 46
  HbA1C level compared to vehicle: significant reduction
[5]; 10 micromole/kg, OGTT 15 hours after drug, end of study
  OGTT glucose levels compared to vehicle: significant reduction in glucose levels
[5]; 10 micromole/kg, day 14-15
  24-hour glucose profile: improved compared to the metformin and the NVP-LAF237 groups
[5]; 10 micromoles/kg, Day 0 to Day 46
  rate of increase in HbA1C over time: decline in the rate of increase in HbA1C was most prominent
[5]; 46 days of treatment, compared to vehicle
  free fatty acids (FFA): trend towards free fatty acids (FFA) reduction but this did not reach significance
Serum DPP-IV [6]
  serum DPP-IV activity: maximally inhibited serum DPP-IV activity
